Assays:
Type in all cases: cell-based
human TLR9 = target: T1, human TLR9 (Homo sapiens, UniProt Q9NR96); assay: TLR9 inhibition reporter assay (HEK-Blue cells, SEAP reporter); details: HEK-Blue cells overexpressing human TLR9; stimulated with ODN2006 5 nM; SEAP read after 22 hour; dose range 0.05 nM-50 μM
T1 construct: host or cells: HEK-Blue cells
T1 sequence (Q9NR96 26-1032): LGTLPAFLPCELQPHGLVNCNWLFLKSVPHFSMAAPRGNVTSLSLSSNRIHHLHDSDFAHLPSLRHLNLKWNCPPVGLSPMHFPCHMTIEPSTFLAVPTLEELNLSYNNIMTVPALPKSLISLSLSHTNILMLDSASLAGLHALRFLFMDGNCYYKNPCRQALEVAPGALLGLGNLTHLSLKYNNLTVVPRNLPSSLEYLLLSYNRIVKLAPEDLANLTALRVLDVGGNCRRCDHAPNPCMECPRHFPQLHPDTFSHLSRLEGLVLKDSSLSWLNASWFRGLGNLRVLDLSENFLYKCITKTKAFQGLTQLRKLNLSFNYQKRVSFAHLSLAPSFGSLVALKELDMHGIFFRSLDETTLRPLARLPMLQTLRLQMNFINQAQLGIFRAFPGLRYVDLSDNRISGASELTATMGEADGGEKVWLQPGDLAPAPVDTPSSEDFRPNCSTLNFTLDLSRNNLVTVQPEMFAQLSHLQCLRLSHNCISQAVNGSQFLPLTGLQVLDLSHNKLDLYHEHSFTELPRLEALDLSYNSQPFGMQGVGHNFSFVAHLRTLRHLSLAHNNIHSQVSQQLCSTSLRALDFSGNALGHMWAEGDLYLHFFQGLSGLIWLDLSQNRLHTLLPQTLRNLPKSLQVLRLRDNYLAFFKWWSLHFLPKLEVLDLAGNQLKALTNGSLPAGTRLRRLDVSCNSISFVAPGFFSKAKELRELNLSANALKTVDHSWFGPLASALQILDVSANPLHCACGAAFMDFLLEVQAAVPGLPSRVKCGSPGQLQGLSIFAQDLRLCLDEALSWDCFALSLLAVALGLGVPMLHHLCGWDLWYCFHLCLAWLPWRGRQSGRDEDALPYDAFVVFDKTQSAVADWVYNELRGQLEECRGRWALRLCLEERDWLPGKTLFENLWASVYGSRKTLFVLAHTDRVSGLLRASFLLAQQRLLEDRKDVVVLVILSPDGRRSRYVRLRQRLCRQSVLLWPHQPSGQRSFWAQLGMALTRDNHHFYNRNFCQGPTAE
Method in brief: (§1)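 HEK-Blue cells with NF-κB/AP-1-driven SEAP pre-treated 30 min with compounds (0.05 nM-50 μM), then stimulated with gardiquimod 7.5 μM (TLR7), R848 15.9 μM (TLR8) or ODN2006 5 nM (TLR9). SEAP read after 22 h at 37° C; % inhibition relative to agonist+DMSO and reference-inhibitor wells.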

human TLR7 = target: T2, human TLR7 (Homo sapiens, UniProt Q9NYK1); assay: TLR7 inhibition reporter assay (HEK-Blue cells, SEAP reporter); details: HEK-Blue cells overexpressing human TLR7; stimulated with gardiquimod 7.5 μM; SEAP read after 22 hour; dose range 0.05 nM-50 μM
T2 construct: host or cells: HEK-Blue cells
T2 sequence (Q9NYK1 27-1049): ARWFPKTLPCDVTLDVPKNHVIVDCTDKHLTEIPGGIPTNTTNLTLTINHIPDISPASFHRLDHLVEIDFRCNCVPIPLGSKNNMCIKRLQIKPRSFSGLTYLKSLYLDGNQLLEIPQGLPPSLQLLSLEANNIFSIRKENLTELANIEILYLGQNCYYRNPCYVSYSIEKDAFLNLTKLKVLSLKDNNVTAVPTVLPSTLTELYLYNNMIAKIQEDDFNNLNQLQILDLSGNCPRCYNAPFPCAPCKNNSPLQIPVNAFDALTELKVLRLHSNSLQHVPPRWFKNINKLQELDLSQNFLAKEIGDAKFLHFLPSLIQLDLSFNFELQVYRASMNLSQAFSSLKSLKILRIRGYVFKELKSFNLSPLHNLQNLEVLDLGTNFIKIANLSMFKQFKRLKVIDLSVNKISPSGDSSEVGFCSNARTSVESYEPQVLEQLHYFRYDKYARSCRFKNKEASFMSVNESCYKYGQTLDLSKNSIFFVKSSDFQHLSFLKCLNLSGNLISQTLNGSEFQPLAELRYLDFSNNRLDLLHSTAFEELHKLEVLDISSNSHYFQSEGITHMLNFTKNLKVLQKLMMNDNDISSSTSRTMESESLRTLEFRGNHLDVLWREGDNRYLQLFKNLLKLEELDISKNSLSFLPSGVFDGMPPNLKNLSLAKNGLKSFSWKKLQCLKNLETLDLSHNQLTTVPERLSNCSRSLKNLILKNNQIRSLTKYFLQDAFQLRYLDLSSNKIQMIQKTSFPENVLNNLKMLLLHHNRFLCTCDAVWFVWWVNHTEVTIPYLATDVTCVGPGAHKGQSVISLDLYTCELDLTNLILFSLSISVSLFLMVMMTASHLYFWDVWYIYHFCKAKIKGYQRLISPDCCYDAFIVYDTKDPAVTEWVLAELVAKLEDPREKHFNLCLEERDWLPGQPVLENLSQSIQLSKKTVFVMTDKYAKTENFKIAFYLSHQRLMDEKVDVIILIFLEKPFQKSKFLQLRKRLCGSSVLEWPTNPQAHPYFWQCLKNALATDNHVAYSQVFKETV
Method in brief: as §1

human TLR8 = target: T3, human TLR8 (Homo sapiens, UniProt Q9NR97); assay: TLR8 inhibition reporter assay (HEK-Blue cells, SEAP reporter); details: HEK-Blue cells overexpressing human TLR8; stimulated with R848 15.9 μM; SEAP read after 22 hour; dose range 0.05 nM-50 μM
T3 construct: host or cells: HEK-Blue cells
T3 sequence (Q9NR97 27-1041): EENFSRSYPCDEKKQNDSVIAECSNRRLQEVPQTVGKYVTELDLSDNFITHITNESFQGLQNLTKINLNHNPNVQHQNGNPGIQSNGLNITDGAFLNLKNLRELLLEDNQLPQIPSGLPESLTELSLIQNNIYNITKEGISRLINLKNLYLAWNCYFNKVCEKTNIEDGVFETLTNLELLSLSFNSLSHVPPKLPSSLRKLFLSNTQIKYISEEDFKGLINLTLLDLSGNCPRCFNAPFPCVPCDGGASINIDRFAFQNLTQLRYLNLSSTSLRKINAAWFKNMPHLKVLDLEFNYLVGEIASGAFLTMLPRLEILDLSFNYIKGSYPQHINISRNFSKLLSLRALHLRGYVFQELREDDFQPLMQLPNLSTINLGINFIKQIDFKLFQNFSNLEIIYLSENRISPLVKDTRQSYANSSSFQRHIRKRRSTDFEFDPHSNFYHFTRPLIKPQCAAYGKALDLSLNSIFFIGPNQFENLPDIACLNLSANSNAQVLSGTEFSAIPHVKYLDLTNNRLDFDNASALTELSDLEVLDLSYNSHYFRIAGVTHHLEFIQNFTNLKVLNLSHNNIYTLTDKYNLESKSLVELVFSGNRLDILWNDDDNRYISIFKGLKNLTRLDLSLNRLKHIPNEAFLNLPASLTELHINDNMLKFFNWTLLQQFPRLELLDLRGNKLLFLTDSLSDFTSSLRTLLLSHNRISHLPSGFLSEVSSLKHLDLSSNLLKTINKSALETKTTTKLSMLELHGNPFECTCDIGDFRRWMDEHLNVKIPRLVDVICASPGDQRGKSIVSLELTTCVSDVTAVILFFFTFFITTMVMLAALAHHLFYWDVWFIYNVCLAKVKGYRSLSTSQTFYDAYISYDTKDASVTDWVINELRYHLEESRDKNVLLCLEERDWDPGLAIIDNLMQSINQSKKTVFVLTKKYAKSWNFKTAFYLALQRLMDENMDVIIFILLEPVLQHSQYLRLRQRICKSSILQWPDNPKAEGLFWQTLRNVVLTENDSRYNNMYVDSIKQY
Method in brief: as §1

Compound | IC50 (human TLR9) [nM] | IC50 (human TLR7) [nM] | IC50 (human TLR8) [nM]
CNC(=O)c1ccc(-c2cc3cc(-c4ccc(N5CCN(C(C)C)CC5)cc4)ccc3[nH]c2=O)cc1 [Example 54, N-methyl-4-(2-oxo-6-{4-[4-(propan-2-yl)piperazin-1-yl]phenyl}-1,2-dihydroquinolin-3-yl)benzamide] | 379 | 13000 | ≥ 50000
CC(C)N1CCC(c2ccc(-c3ccc4c(c3)cc(-c3ccc(N(C)S(C)(=O)=O)cc3)c(=O)n4C)cc2)CC1 [Example 74, N-methyl-N-[4-(1-methyl-2-oxo-6-{4-[1-(propan-2-yl)piperidin-4-yl]phenyl}-1,2-dihydroquinolin-3-yl)phenyl]methanesulfonamide] | 237 | 12000 | 29600
CC(=O)Nc1ccc(-c2cc3cc(-c4ccc(C5CCN(C(C)C)CC5)cc4)ccc3[nH]c2=O)cc1 [Example 81, N-[4-(2-oxo-6-{4-[1-(propan-2-yl)piperidin-4-yl]phenyl}-1,2-dihydroquinolin-3-yl)phenyl]acetamide] | 309 | 333 | 796
COC(=O)c1ccc(-c2cc3cc(-c4ccc(N5CCN(C(C)C)CC5)cc4)ccc3[nH]c2=O)cc1 [Example 28, methyl 4-(2-oxo-6-{4-[4-(propan-2-yl)piperazin-1-yl]phenyl}-1,2-dihydroquinolin-3-yl)benzoate] | 2280 | ≥ 50000 | ≥ 50000
CC(C)N1CCN(c2ccc(-c3ccc4[nH]c(=O)c(-c5cccnc5)cc4c3)cc2)CC1 [Example 32, 6-{4-[4-(propan-2-yl)piperazin-1-yl]phenyl}-3-(pyridin-3-yl)-1,2-dihydroquinolin-2-one] | 293 | 418 | 17
CC(C)N1CCC(c2ccc(-c3ccc4[nH]c(=O)c(-c5cccc(C#N)c5)cc4c3)cc2)CC1 [Example 69, 3-(2-oxo-6-{4-[1-(propan-2-yl)piperidin-4-yl]phenyl}-1,2-dihydroquinolin-3-yl)benzonitrile] | 75 | 538 | 17600
CC(C)N1CCN(c2ccc(-c3ccc4[nH]c(=O)c(-c5cccc(C(F)(F)F)c5)cc4c3)cc2)CC1 [Example 45, 6-{4-[4-(propan-2-yl)piperazin-1-yl]phenyl}-3-[3-(trifluoromethyl)phenyl]-1,2-dihydroquinolin-2-one] | 734 | ≥ 50000 | ≥ 50000
CC(C)N1CCN(c2ccc(-c3ccc4[nH]c(=O)c(-c5ccc(C#N)cc5)cc4c3)cc2)CC1 [Example 12, 4-(2-oxo-6-{4-[4-(propan-2-yl)piperazin-1-yl]phenyl}-1,2-dihydroquinolin-3-yl)benzonitrile] | 121 | 3000 | 7560
NS(=O)(=O)c1ccc(-c2cc3cc(-c4ccc(C5CCN(C6COC6)CC5)cc4)ccc3[nH]c2=O)cc1 [Example 92, 4-(6-{4-[1-(oxetan-3-yl)piperidin-4-yl]phenyl}-2-oxo-1,2-dihydroquinolin-3-yl)benzene-1-sulfonamide] | 560 | ≥ 50000 | 11400
CC(C)N1CCC(c2ccc(-c3ccc4c(c3)cc(-c3ccc(S(C)(=O)=O)cc3)c(=O)n4C)cc2)CC1 [Example 68, 3-(4-methanesulfonylphenyl)-1-methyl-6-{4-[1-(propan-2-yl)piperidin-4-yl]phenyl}-1,2-dihydroquinolin-2-one] | 70 | 7960 | 475
CC(C)N1CCN(c2ccc(-c3ccc4[nH]c(=O)c(-c5ccc(S(N)(=O)=O)cc5)cc4c3)cc2)CC1 [Example 11, 4-(2-oxo-6-{4-[4-(propan-2-yl)piperazin-1-yl]phenyl}-1,2-dihydroquinolin-3-yl) benzene-1-sulfonamide] | 119 | ≥ 50000 | 2050
CC(C)N1CCN(c2ccc(-c3ccc4[nH]c(=O)c(-c5ccccc5C#N)cc4c3)cc2)CC1 [Example 15, 2-(2-oxo-6-{4-[4-(propan-2-yl)piperazin-1-yl]phenyl}-1,2-dihydroquinolin-3-yl)benzonitrile] | 259 | 459 | 1030
CC(C)N1CCN(c2ccc(-c3ccc4c(c3)cc(-c3ccc(N(C)S(C)(=O)=O)cc3)c(=O)n4C)cc2)CC1 [Example 23, N-methyl-N-[4-(1-methyl-2-oxo-6-{4-[4-(propan-2-yl)piperazin-1-yl]phenyl}-1,2-dihydroquinolin-3-yl)phenyl]methanesulfonamide] | 221 | 5510 | 36000
CC(C)N1CCN(c2ccc(-c3ccc4[nH]c(=O)c(-c5ccc(C(=O)O)cc5)cc4c3)cc2)CC1 [Example 62, 4-(2-oxo-6-{4-[4-(propan-2-yl)piperazin-1-yl]phenyl}-1,2-dihydroquinolin-3-yl)benzoic acid] | 1760 | ≥ 50000 | ≥ 50000

— US20260183275A1, “SUBSTITUTED QUINOLONE COMPOUNDS USEFUL AS INHIBITORS OF TLR9” (Bristol-Myers Squibb Company, priority 2022, published 2026)
